Test results published in patent US20080033020A1, “3-Pyridinylethylbenzamide Derivatives as Fungicides” (priority 2004, published 2008).

Key:
[1] = test system: Botrytis cinerea; test: Effectiveness on Botrytis cinerea (comparative compounds); assay type: in vivo; details: at 330 ppm; comparative compounds of WO 01/11965
[2] = test system: Alternaria brassicae; test: In vivo test on Alternaria brassicae (leaf spot of crucifers) on radish plants; details: at 330 ppm; comparative compounds of WO 01/11965
Description: The active ingredient tested is prepared by potter homogenisation in a concentrated suspension type formulation at 100 g/l. This suspension is then diluted with water to obtain the desired active material concentration.
Radish plants (Pernot variety) in starter cups, sown on a 50/50 peat soil-pozzolana substrate and grown at 18-20° C., are treated at the cotyledon stage by spraying with the aqueous suspension described above.
Plants, used as controls, are treated with an aqueous solution not containing the active material.
After 24 hours, the plants are contaminated by spraying them with an aqueous suspension of Alternaria brassicae spores (40,000 spores per cm^3). The spores are collected from a 12 to 13 days-old culture.
The contaminated radish plants are incubated for 6-7 days at about 18° C., under a humid atmosphere.
Grading is carried out 6 to 7 days after the contamination, in comparison with the control plants.
Under these conditions, good (at least 50%) or total protection is observed at a dose of 330 ppm or 110 ppm with the following compounds: 1, 2, 3, 4, 5, 6, 7, 8, 9, 10 and 11.

[3] = test system: Peronospora parasitica; test: Efficacy against Peronospora parasitica (comparative compound); assay type: in vivo; details: at 330 ppm; comparative compound of WO 01/11965

SMILES	effectiveness on Botrytis cinerea [1]	effectiveness on Alternaria brassicae [2]	efficacy against Peronospora parasitica [3]
O=C(Cc1cccs1)NCc1ncc(C(F)(F)F)cc1Cl [compound 101, N-{[3-chloro-5-(trifluoromethyl)-2-pyridinyl]methyl}-5-thienylacetamide]	no efficacy	poor efficacy	no efficacy
CCNC(=O)C(Cc1ncc(C(F)(F)F)cc1Cl)NC(=O)c1ccccc1 (stereo not drawn) [compound 304, N-{1-ethylcarbamoyl-2-[3-chloro-5-(trifluoromethyl)-2-pyridinyl]-ethyl}-benzamide]	zero effectiveness		
CCNC(=O)C(Cc1ncc(C(F)(F)F)cc1Cl)NC(=O)c1ccc(Cl)cc1 (stereo not drawn) [compound 306, N-{1-ethylcarbamoyl-2-[3-chloro-5-(trifluoromethyl)-2-pyridinyl]ethyl}-4-chlorobenzamide]	zero effectiveness		
CCNC(=O)C(Cc1ncc(C(F)(F)F)cc1Cl)NC(=O)c1cccc([N+](=O)[O-])c1 (stereo not drawn) [compound 307, N-{1-ethylcarbamoyl-2-[3-chloro-5-(trifluoromethyl)-2-pyridinyl]ethyl}-3-nitrobenzamide]	zero effectiveness	poor effectiveness	
CCNC(=O)C(Cc1ncc(C(F)(F)F)cc1Cl)NC(=O)c1ccccc1Br (stereo not drawn) [compound 310, N-{1-ethylcarbamoyl-2-[3-chloro-5-(trifluoromethyl)-2-pyridinyl]ethyl}-2-bromobenzamide]	zero effectiveness		
CNC(=O)C(Cc1ncc(C(F)(F)F)cc1Cl)NC(=O)c1ccccc1 (stereo not drawn) [compound 314, N-{1-methylcarbamoyl-2-[3-chloro-5-(trifluoromethyl)-2-pyridinyl]ethyl}-benzamide]	zero effectiveness		
CNC(=O)C(Cc1ncc(C(F)(F)F)cc1Cl)NC(=O)c1ccc(OC)cc1 (stereo not drawn) [compound 315, N-{1-methylcarbamoyl-2-[3-chloro-5-(trifluoromethyl)-2-pyridinyl]ethyl}-4-methoxybenzamide]	zero effectiveness		
CNC(=O)C(Cc1ncc(C(F)(F)F)cc1Cl)NC(=O)c1ccc(-c2ccccc2)cc1 (stereo not drawn) [compound 316, N-{1-methylcarbamoyl-2-[3-chloro-5-(trifluoromethyl)-2-pyridinyl]-ethyl}-4-phenylbenzamide]	zero effectiveness	poor effectiveness	
